Columns and labels:
[1] = tested on: differentiated P19 neurons; assay: Drug screening using differentiated P19 cell assay (neuroprotection against 3 mM glutamate and 1 mM glycine); type: cell-based, murine; conditions: dose response 0.005-3 μM, >1 = no observed maximum within highest dose tested (3 μM)
Procedure: Commercially available chemical libraries (BioFocus PLC, UK) were screened using the methods described herein. The stock concentration of the compounds was about 400 μM in DMSO. The concentration of compounds used in the primary screen was 1 μM. […] Columns 4-11 received compounds at the following final concentrations (μM): 3, 1.2, 0.48, 0.192, 0.077, 0.031, 0.012 and 0.005. Each row contained a different compound for confirmation. Only rows B-G received compounds, and rows A and H remained untreated.
Only the 4-pyrimidinamines are the subject of this invention, although limited data for 2-pyridinamines are presented as well. “% Inh” indicates the percentage of control cells surviving after 24 hours, and represents the neuroprotective effect of the compounds screened at 1 micromolar concentration. IC50 relate to data from dose response experiments. […] ND refers to compounds not tested in dose-response experiments.
The representative compounds listed in Tables IX<X, XI and XII were tested according to the procedure described in Example 5 with results as listed in Table XIII. Unless otherwise noted, molecular weights were measure on a Hewlitt-Packard Series 1050 Chemical Ionization mass spectrometer.

P19 neurons = assay: P19 neuron viability / toxicity by Alamar blue fluorescence; type: cell-based, murine
Procedure: Alamar Blue fluorescence, an indicator of cell viability, was used to determine cell viability after an NMDA-induced cytotoxic insult. […] However, since raw fluorescence counts vary from experiment to experiment, FIGS. 2A, 2B, and 2C are expressed as a percent of control.
Glutamate toxicity dose response in the presence of a constant 1 mM glycine concentration was measured in the differentiated P19 neurons. The curve generated through the data points is the average of 6 separate dose response curves. Data points are represented as the percent of control cells±standard error. % control=(([Glutamate]exp−[Glutamate]max)/(Controlvehicle−[Glutamate]max))×100.
(§1) The second method for measuring cell viability was a plate reader method. Cells plated into black 96 well plates (Packard viewplates) were loaded with 5% Alamar Blue dye (Biosource International). Alamar Blue is a dye that takes advantage of mitochondrial reductases to convert non-fluorescent resazurin to fluorescent resorufin (excitation 535 nm, emission 580 nm). Baseline fluorescence counts were read at room temperature in a Wallac plate reader immediately after addition of Alamar blue. Fluorescence counts of cell viability were taken the same way after 1 hour incubation at 37° C. Fluorescence was expressed as a percent of control, untreated cells after subtraction of background fluorescence. Live/dead cells were confirmed visually with a light microscope.
Cells were then assayed for Alamar blue fluorescence. The curve generated through the data points is the average of 3 separate dose response curves. Data points are represented as percent of control cells±standard error.

[2] = tested on: differentiated P19 neurons; assay: Differentiated P19 excitotoxicity assay: neuroprotection by known kinase inhibitors against glutamate/glycine (Alamar Blue, CFDA); type: cell-based, murine; conditions: 3 mM glutamate, 1 mM glycine
Procedure: Data points are the average±standard error of three separate experiments.
These cells were used to measure the effects of various known kinase inhibitors (Compound Identification (ID) column in Table I) upon cytotoxicity-induced by NMDA. First, P19 cells were differentiated as described in Example 2. Then cells were exposed to 3 mM of glutamate in the presence of 1 mM glycine.
Cell viability was determined. Compounds that prevented excitotoxicity were determined by measuring the percentage of viable cells compared to differentiated P19 cells that were not presented with a toxic insult (Table I).
Cell viability was measured using two methods. The first method was a confocal, single-cell fluorescence imaging-based method using the live cell dye carboxy-fluorescein diacetate (CFDA). CFDA labels the cell bodies and processes of living cells. […] CFDA fluorescence was measured using a modified Attofluor Imager device (Atto Instruments, Rockville Pike, Md.). Cells were labeled with 1 uM CFDA for 15 min in media, then placed onto the stage of the Attofluor microscope. The dye was excited by light from a mercury lamp source passed through a 488 nm bandpass filter of 10 nm band width, passed through a CARV real-time confocal spinning disk module (Atto Instruments, Rockville, Md.), and then passed through a 40×oil immersion objective (Zeiss Fluar, NA=1.3). Emitted light was transmitted through a 495 nm dichroic mirror, collected to an Attofluor intensified CCD camera, and images were visualized using Attofluor Ratio Vision software (Atto Instruments, Rockville, Md.).
as §1
Kinase inhibition activities and potencies were derived from the literature (Chijiwa et al. 1990; Favata et al. 1998; Henry et al. 1998; Inhorn and Majerus 1987; Kobayashi et al. 1989; Lee et al. 1994; Onoda et al. 1989; Tokumitsu et al. 1990). […] Curves were fit, and confidence intervals were determined using GraphPad Prism software.

CAMKII = conditions: read-out: Potency, Ki, CAMKII; cited from earlier work
Male Wistar rats = assay: Transient model of cerebral ischemia in rats (lesion volume); type: in vivo, rat; conditions: i.v., 1 hr post ischemia onset, 24 h, average of 12
Procedure: Male Wistar rats (Iffa Crédo, France), weighing 250-300 g, were housed 2 per cage under a light-dark cycle of 12 hr-12 hr (light on at 7:00 a.m., off at 7:00 p.m.) at a room temperature of 21±2° C., with 50±15% humidity, for a minimum of 5 days before the experiments. During this time, the rats had free access to commercial rat chow (Trouw Nutrition France, Vigny, France, ref. 811002) and tap water.
The animals were anaesthetized with 5% halothane in air for induction, then 1-2% halothane during surgery. The rat's body temperature was maintained at 37° C. with a heating pad. A 2 cm incision was made at the center of the neck and the right common carotid artery (CCA), external carotid artery (ECA) and internal carotid artery (ICA) were exposed under an operating microscope. The ICA was further dissected to identify the pterygopalatine artery (PA) branch and the intracranial ICA branch. The CCA was ligated. A 3-0 silk suture was tied at the origin of the ECA and ligated. A catheter (id=0.58 mm) was introduced into the CCA through a small puncture and advanced to the intracranial branch of the ICA. A 4-0 surgical nylon suture was introduced into the catheter. A length of approximately 19 mm of nylon suture was gently advanced from the CCA into the lumen of the ICA until the suture blocked the origin of the MCA. The suture was sealed into the catheter by heat, leaving 1 cm of catheter protruding so the suture could be withdrawn to allow reperfusion. The incision was closed using skin clips. Anaesthesia was then terminated and the animals were placed under heat lamps until recovery from anaesthesia. The rats awakened 10-15 min later. After 2 hr of ischemia, reperfusion was performed by withdrawal of the suture until the tip cleared the ICA lumen. Vehicle or test compound was administered intraperitoneally (i.p.) or intravenously (i.v.) at 1 hr post ischemia onset.
24 h after the onset of occlusion, the rats were killed by decapitation. The brains were immediately removed, frozen in isopentane and stored at −20° C. The brains were then cut in 20 μm thick sections in a cryocut. Every 20th slice was used to measure infarct area. The sections were stained with cresyl violet and the areas of infarct in the striatum and cortex were determined by planimetry using an image analysis software (Image, NIH) after digitalization of the section images.
Following the procedure described above, MK-801, compound #46 and compound #264 (as listed in the Tables herein) were evaluated for neuroprotective effects in rats with results as listed in Table VIII. The data represent average lesion volume in mm^3 for 12 measurements. Vehicle used was 15% solutol in 5% dextrose.

CCN(CCO)c1ccc(Nc2cc(-c3cccc(N(C)C)c3)ncn2)cc1 [Cmpd 148]
IC50 ([1]; Mus musculus, Neuron): 0.47 µM

CN(C)c1ccc(Nc2cc(-c3ccc4ccccc4c3)ncn2)cc1 [Cmpd 41]
IC50 [1]: 0.54 µM

CCN(CCO)c1ccc(Nc2cc(-c3ccc(SC)cc3)ncn2)cc1 [Cmpd 50]
IC50 ([1]; Mus musculus, Neuron): 0.41 µM

CN(C)c1ccc(Nc2cc(-c3ccccc3Oc3ccccc3)ncn2)cc1 [Cmpd 63]
IC50 ([1]; Mus musculus, Neuron): > 1 µM

CN(C)c1ccc(Nc2cc(-c3cccc4ccccc34)ncn2)cc1 [Cmpd 61]
IC50 ([1]; Mus musculus, Neuron): > 1 µM

CN(C)c1ccc(Nc2cc(-c3ccc(OCc4ccccc4)cc3)ncn2)cc1 [Cmpd 42, 1,4-benzenediamine, N^1,N^1-dimethyl-N^4-[6-[4-(phenylmethoxy)phenyl]-4-pyrimidinyl]-]
IC50 [1]: 0.2 µM

NCC(=O)O [Glycine]
effect on basal P19 neuron viability, substance alone (P19 neurons; no inducer of toxicity (U0126: 10 μM)): did not affect P19 neuron viability

CN(C)c1ccc(Nc2cc(-c3ccc(C#N)cc3)ncn2)cc1 [Cmpd 62]
IC50 ([1]; Mus musculus, Neuron): > 1 µM

O=S(=O)(NCCNC/C=C/c1ccc(Br)cc1)c1cccc2cnccc12 [H-89]
Maximal Efficacy for Neuroprotection [2]: <25%
IC50 ([2]; mean of three separate curves, read-out: IC50 for Neuroprotection [lower-upper 95% C.I.]): > 10 µM
Ki (CAMKII): ~30 µM

CCN(CCO)c1ccc(Nc2cc(-c3cnc(OCc4ccccc4)nc3OCc3ccccc3)ncn2)cc1 [Cmpd 58, 2-{[4-(2′,4′-is-benzyloxy-[4,5′]bipyrimidinyl-6-ylamino)-phenyl]-ethyl-amino}-ethanol]
IC50 ([1]; Mus musculus, Neuron): 0.39 µM

CCN(CCO)c1ccc(Nc2cc(-c3ccc(C#N)cc3)ncn2)cc1 [Cmpd 64]
IC50 ([1]; Mus musculus, Neuron): > 1 µM

CCN(CCO)c1ccc(Nc2cc(-c3ccc(OC(F)(F)F)cc3)ncn2)cc1 [Cmpd 51, ethanol, 2-[ethyl[4-[[6-[4-(trifluoromethoxy)phenyl]-4-pyrimidinyl]amino]phenyl]amino]-]
IC50 ([1]; Mus musculus, Neuron): 0.23 µM

CCN(CCO)c1ccc(Nc2cc(-c3ccsc3)ncn2)cc1 [Cmpd 55]
IC50 ([1]; Mus musculus, Neuron): 0.86 µM

CCN(CCO)c1ccc(Nc2cc(-c3ccc(-c4ccccc4)cc3)ncn2)cc1 [Cmpd 47]
IC50 ([1]; Mus musculus, Neuron): 0.49 µM

CN([C@@H](Cc1ccc(OS(=O)(=O)c2cccc3cnccc23)cc1)C(=O)N1CCN(c2ccccc2)CC1)S(=O)(=O)c1cccc2cnccc12 [KN62]
Maximal Efficacy for Neuroprotection [2]: <10%
IC50 for Neuroprotection [lower-upper 95% C.I.] ([2]; mean of three separate curves): Ineffective
Ki (CAMKII): ~0.9 µM

CCN(CCO)c1ccc(Nc2cc(-c3cccc([N+](=O)[O-])c3)ncn2)cc1 [Cmpd 49]
IC50 ([1]; Mus musculus, Neuron): 0.55 µM

CCn1c2ccccc2c2ccc(Nc3cc(-c4ccc(OC)c(OC)c4)ncn3)cc21 [Cmpd 151]
IC50 [1]: > 1 µM

CN(C)c1ccc(Nc2cc(-c3cccc(-c4ccccc4)c3)ncn2)cc1 [Cmpd 43, 1,4-benzenediamine, N^1-(6-[1,1′-biphenyl]-3-yl-4-pyrimidinyl)-N^4,N^4-dimethyl-]
IC50 ([1]; Mus musculus, Neuron): 0.22 µM

CCN(CCO)c1ccc(Nc2cc(-c3ccccc3Oc3ccccc3)ncn2)cc1 [Cmpd 56]
IC50 ([1]; Mus musculus, Neuron): 0.57 µM

CCn1c2ccccc2c2ccc(Nc3cc(-c4ccc(N5CCN(C)CC5)cc4)ncn3)cc21 [Cmpd 154]
IC50 [1]: 0.55 µM

CN(C)c1ccc(Nc2cc(-c3cc4ccccc4o3)ncn2)cc1 [Cmpd 59]
IC50 [1]: 0.48 µM

CCN(CCO)c1ccc(Nc2cc(-c3cc(C(F)(F)F)cc(C(F)(F)F)c3)ncn2)cc1 [Cmpd 48]
IC50 [1]: 0.48 µM

Oc1ccc(-c2cc(Nc3ccc(N4CCN(c5ccccc5)CC4)cc3)ncn2)cc1 [Cmpd 65]
IC50 ([1]; Mus musculus, Neuron): > 1 µM

CN(C)c1ccc(Nc2cc(-c3ccc(N(C)C)cc3)ncn2)cc1 [Cmpd 149]
IC50 ([1]; Mus musculus, Neuron): 0.33 µM

CCN(CCO)c1ccc(Nc2cc(-c3ccc(CNC(=O)OC(C)(C)C)cc3)ncn2)cc1 [Cmpd 147]
IC50 ([1]; Mus musculus, Neuron): 1.09 µM

CCN(CCO)c1ccc(Nc2cc(-c3cc4ccccc4s3)ncn2)cc1 [Cmpd 54, ethanol, 2-[[4-[(6-benzo[b]thien-2-yl-4-pyrimidinyl)amino]phenyl]ethylamino]-]
IC50 ([1]; Mus musculus, Neuron): 0.24 µM

N[C@@H](CCC(=O)O)C(=O)O [Glutamate]
reduction in Alamar blue fluorescence (P19 neurons; 3 mM glutamate and 1 mM glycine for 24 hours): 60%
EC50 (P19 neurons; constant 1 mM glycine, 24 hours, average of 6 curves, read-out: Glutamate toxicity EC50): 8.1 µM

CCn1c2ccccc2c2ccc(Nc3cc(-c4cc(OC)c(OC)c(OC)c4)ncn3)cc21 [Cmpd 152]
IC50 [1]: > 1 µM

CN(C)c1ccc(Nc2cc(-c3cc(C(F)(F)F)cc(C(F)(F)F)c3)ncn2)cc1 [Cmpd 44, 1,4-benzenediamine, N^1-[6-[3,5-bis(trifluoromethyl)phenyl]-4-pyrimidinyl]-N^4,N^4-dimethyl-]
IC50 ([1]; Mus musculus, Neuron): 0.26 µM

CCN(CCO)c1ccc(Nc2cc(C3C=C4C=CC=CC4O3)ncn2)cc1 (stereo not shown) [Cmpd 53]
IC50 ([1]; Mus musculus, Neuron): 0.54 µM

CCN(CCO)c1ccc(Nc2cc(-c3cccc(-c4ccccc4)c3)ncn2)cc1 [Cmpd 46, ethanol, 2-[[4-[(6-[1,1′-biphenyl]-3-yl-4-pyrimidinyl)amino]phenyl]ethylamino]-]
Cortex + Striatum Vol. (mm^3) (Male Wistar rats; 0.6 mg/kg): 326.6 ± 26.0 mm^3
Cortex Vol. (mm^3) (Male Wistar rats; 0.6 mg/kg): 247.6 ± 24.8 mm^3
Striatum Vol. (mm^3) (Male Wistar rats; 0.6 mg/kg): 79.1 ± 3.0 mm^3
Cortex + Striatum Vol. (mm^3) (Male Wistar rats; 3 mg/kg): 290.8 ± 28.1 mm^3
Cortex Vol. (mm^3) (Male Wistar rats; 3 mg/kg): 214.7 ± 26.6 mm^3
Striatum Vol. (mm^3) (Male Wistar rats; 3 mg/kg): 76.1 ± 2.8 mm^3
IC50 ([1]; Mus musculus, Neuron): 0.07 µM

CCN(CCO)c1ccc(Nc2cc(-c3ccc4ccccc4c3)ncn2)cc1 [Cmpd 45]
IC50 [1]: 0.57 µM
